Where two headings read alike, the source gives them in different places.
Tests used:
[1] = target: recombinant human Mcl-1 (residues 171-327) / Bim interaction (Homo sapiens (Human), UniProt Q07820); assay: biochemical; type: binding; details: read-out: Mcl-1 HTRF IC50
[2] = tested on: human multiple myeloma cell line, OPM-2; assay: Cell viability assay (OPM-2 10 FBS), CellTiter-Glo; type: cell-based
Method in brief: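 Cells were seeded at 3000 cells/well in RPMI 1640 with 10% FBS and exposed to serially diluted compounds for 16 h at 37 °C, 5% CO2.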

[3] = TR-FRET, Mcl-1(171-327) / biotin-Bim (51-76)
[4] = Homo sapiens, OPM-2, 16 h, read-out: OPM-2 10% FBS IC50 IP, OPM-2 cells, 10% FBS, 16 h, CellTiter-Glo
[5] = read-out: OPM-2 10% FBS IC50 IP, OPM-2 cells, 10% FBS, 16 h, CellTiter-Glo
[6] = 0.1 nM Mcl-1(171-327), 0.05 nM biotin-Bim (51-76)
[7] = Homo sapiens, OPM-2, 16 h, read-out: OPM-2 10% FBS IC50 IP, OPM-2 cells, 10% FBS, 16 h incubation

Sequence of recombinant human Mcl-1 (residues 171-327) / Bim interaction (Q07820 171-327): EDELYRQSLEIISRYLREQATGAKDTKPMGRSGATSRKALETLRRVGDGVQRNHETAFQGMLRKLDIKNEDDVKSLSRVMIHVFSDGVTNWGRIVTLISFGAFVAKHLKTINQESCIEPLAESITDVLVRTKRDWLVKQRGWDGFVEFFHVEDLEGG

Structure (SMILES) | IC50 [1, 3] [nM] | IC50 [2, 4] [nM] | IC50 [2, 5] [nM] | further results
COc1ccncc1[C@]1(O)/C=C/C[C@H](C)[C@@H](C)S(=O)(=O)NC(=O)c2ccc3c(c2)N(C[C@@H]2CC[C@H]21)C[C@@]1(CCCc2cc(Cl)ccc21)CO3 (single isomer, unassigned) [Example 100557] | 0.093 | 299 | – | –
CC[C@@H]1CCCC[C@@](O)(COC)[C@@H]2CC[C@H]2CN2C[C@@]3(CCCc4cc(Cl)ccc43)COc3ccc(cc32)C(=O)NS1(=O)=O [Example 100039, (1S,3′R,6′R,7′S,12′R)-6-chloro-12′-ethyl-7′-hydroxy-7′-(methoxymethyl)-3,4-dihydro-2H,15′H-spiro[naphthalene-1,22′-[20]oxa[13]thia[1,14]diazatetracyclo [14.7.2.0~3,6~.0~19,24~]pentacosa[16,18,24]trien]-15′-one 13′,13′-dioxide] | 0.563 | 744 | – | –
CO[C@@]1(C#CCO)/C=C/C[C@H](C)[C@@H](C)S(=O)(=O)NC(=O)c2ccc3c(c2)N(C[C@@H]2CC[C@H]21)C[C@@]1(CCCc2cc(Cl)ccc21)CO3 [Example 100345, (1S,3′R,6′R,7′S,8′E,11′S,12′R)-6-chloro-7′-(3-hydroxy-1-propyn-1-yl)-7′-methoxy-11′,12′-dimethyl-3,4-dihydro-2H,15′H-spiro[naphthalene-1,22′-[20]oxa[13]thia[1,14]diazatetracyclo [14.7.2.0~3,6~.0~19,24~]pentacosa[8,16,18,24]tetraen]-15′-one 13′,13′-dioxide] | 2.42 | – | 218 | –
CO[C@]1(CN2CCN(CC(F)F)CC2)/C=C/C[C@H](C)[C@@H](C)S(=O)(=O)NC(=O)c2ccc3c(c2)N(C[C@@H]2CC[C@H]21)C[C@@]1(CCCc2cc(Cl)ccc21)CO3 [Example 95, (1S,3′R,6′R,7′R,8′E,11′S,12′R)-6-chloro-7′-((4-(2,2-difluoroethyl)-1-piperazinyl)methyl)-7′-methoxy-11′,12′-dimethyl-3,4-dihydro-2H,15′H-spiro[naphthalene-1,22′-[20]oxa[13]thia[1,14]diazatetracyclo [14.7.2.0~3,6~.0~19,24~]pentacosa[8,16,18,24]tetraen]-15′-one 13′,13′-dioxide] | – | – | – | IC50 [1, 6]: 0.189 nM; IC50 [2, 7]: 338 nM
COCC[C@@H]1[C@@H](C)C/C=C/[C@](OC)(C2SCCCS2)[C@@H]2CC[C@H]2CN2C[C@@]3(CCCc4cc(Cl)ccc43)COc3ccc(cc32)C(=O)NS1(=O)=O [Example 100515, (1S,3′R,6′R,7′R,8′E,11′S,12′R)-6-chloro-7′-(1,3-dithian-2-yl)-7′-methoxy-12′-(2-methoxyethyl)-11′-methyl-3,4-dihydro-2H,15′H-spiro[naphthalene-1,22′-[20]oxa[13]thia[1,14]diazatetracyclo [14.7.2.0~3,6~.0~19,24~]pentacosa[8,16,18,24]tetraen]-15′-one 13′,13′-dioxide] | 0.132 | 585 | – | –
C[C@@H]1[C@@H](C)CCCC2(CN3CCOC[C@H]3CO2)[C@@H]2CC[C@H]2CN2C[C@@]3(CCCc4cc(Cl)ccc43)COc3ccc(cc32)C(=O)NS1(=O)=O (stereo partly drawn) [Example 400, (1S,3′R,6′R,7′S,9a″S,11′S,12′R)-6-chloro-11′,12′-dimethyl-3,4,6″,7″,9″,9a″-hexahydro-1″H,2H,15′H-dispiro[naphthalene-1,22′-[20]oxa[13]thia[1,14]diazatetracyclo[14.7.2.0-3,6˜.0˜19,24˜]pentacosa[16,18,24]triene-7′,3″-[1,4]oxazino[3,4-c][1,4]oxazin]-15′-one 13′,13′-dioxide] | – | – | – | IC50 [1, 6]: 1.1 nM; IC50 ([2]; read-out: OPM-2 10% FBS IC50 IP, OPM-2 cells, 10% FBS, 16 h incubation): 2870 nM
C[C@@H]1[C@@H](C)C/C=C/[C@@](O)(Cc2ccncn2)[C@@H]2CC[C@H]2CN2C[C@@]3(CCCc4cc(Cl)ccc43)COc3ccc(cc32)C(=O)NS1(=O)=O [Example 100152, (1S,3′R,6′R,7′S,8′E,11′S,12′R)-6-chloro-7′-hydroxy-11′,12′-dimethyl-7′-(4-pyrimidinylmethyl)-3,4-dihydro-2H,15′H-spiro[naphthalene-1,22′-[20]oxa[13]thia[1,14]diazatetracyclo [14.7.2.0~3,6~.0~19,24~]pentacosa[8,16,18,24]tetraen]-15′-one 13′,13′-dioxide] | 0.449 | – | 377 | –
CO[C@@H](C[C@]1(OC)/C=C/C[C@H](C)[C@@H](C)S(=O)(=O)NC(=O)c2ccc3c(c2)N(C[C@@H]2CC[C@H]21)C[C@@]1(CCCc2cc(Cl)ccc21)CO3)C1CC1 [Example 100463, (1S,3′R,6′R,7′S,8′E,11′S,12′R)-6-chloro-7′-((2S)-2-cyclopropyl-2-methoxyethyl)-7′-methoxy-11′,12′-dimethyl-3,4-dihydro-2H,15′H-spiro[naphthalene-1,22′-[20]oxa[13]thia[1,14]diazatetracyclo [14.7.2.0~3,6~.0~19,24~]pentacosa[8,16,18,24]tetraen]-15′-one 13′,13′-dioxide] | 0.383 | – | 1130 | –
C[C@@H]1[C@@H](C)CCC[C@](CO)(OCCN2CCOCC2)[C@@H]2CC[C@H]2CN2C[C@@]3(CCCc4cc(Cl)ccc43)COc3ccc(cc32)C(=O)NS1(=O)=O [Example 100284, (1S,3′R,6′R,7′S,11′S,12′R)-6-chloro-7′-(hydroxymethyl)-11′,12′-dimethyl-7′-(2-(4-morpholinyl)ethoxy)-3,4-dihydro-2H,15′H-spiro[naphthalene-1,22′-[20]oxa[13]thia[1,14]diazatetracyclo [14.7.2.0~3,6~.0~19,24~]pentacosa[16,18,24]trien]-15′-one 13′,13′-dioxide] | 0.285 | – | 396 | –
COC[C@H]1CN(C[C@]2(OC)/C=C/C[C@H](C)[C@@H](C)S(=O)(=O)NC(=O)c3ccc4c(c3)N(C[C@@H]3CC[C@H]32)C[C@@]2(CCCc3cc(Cl)ccc32)CO4)CCO1 [Example 199, (1S,3′R,6′R,7′S,8′E,11′S,12′R)-6-chloro-7′-methoxy-7′-(((2R)-2-(methoxymethyl)-4-morpholinyl)methyl)-11′,12′-dimethyl-3,4-dihydro-2H,15′H-spiro[naphthalene-1,22′-[20]oxa[13]thia[1,14]diazatetracyclo [14.7.2.0~3,6~.0~19,24~]pentacosa[8,16,18,24]tetraen]-15′-one 13′,13′-dioxide] | – | – | – | IC50 [1, 6]: 0.119 nM; IC50 [2, 7]: 208 nM
CO[C@@]1(CS(=O)(=O)C(C)C)/C=C/C[C@H](C)[C@@H](C)S(=O)(=O)NC(=O)c2ccc3c(c2)N(C[C@@H]2CC[C@H]21)C[C@@]1(CCCc2cc(Cl)ccc21)CO3 [Example 100316, (1S,3′R,6′R,7′S,8′E,11′S,12′R)-6-chloro-7′-methoxy-11′,12′-dimethyl-7′-((2-propanylsulfonyl)methyl)-3,4-dihydro-2H,15′H-spiro[naphthalene-1,22′-[20]oxa[13]thia[1,14]diazatetracyclo [14.7.2.0~3,6~.0~19,24~]pentacosa[8,16,18,24]tetraen]-15′-one 13′,13′-dioxide] | 0.276 | – | 375 | –
CCC[C@]1(OC)/C=C/C[C@H](C)[C@@H](C)S(=O)(=O)NC(=O)c2ccc3c(c2)N(C[C@@H]2CC[C@H]21)C[C@@]1(CCCc2cc(Cl)ccc21)CO3 [Example 100236, (1S,3′R,6′R,7′S,8′E,11′S,12′R)-6-chloro-7′-methoxy-11′,12′-dimethyl-7′-propyl-3,4-dihydro-2H,15′H-spiro[naphthalene-1,22′-[20]oxa[13]thia[1,14]diazatetracyclo [14.7.2.0~3,6~.0~19,24~]pentacosa[8,16,18,24]tetraen]-15′-one 13′,13′-dioxide] | 1.1 | 933 | – | –
C[C@@H]1[C@@H](C)C/C=C/[C@@](O)(c2cnccn2)[C@@H]2CC[C@H]2CN2C[C@@]3(CCCc4cc(Cl)ccc43)COc3ccc(cc32)C(=O)NS1(=O)=O [Example 100357, (1S,3′R,6′R,7′S,8′E,11′S,12′R)-6-chloro-7′-hydroxy-11′,12′-dimethyl-7′-(2-pyrazinyl)-3,4-dihydro-2H,15′H-spiro[naphthalene-1,22′-[20]oxa[13]thia[1,14]diazatetracyclo [14.7.2.0~3,6~.0~19,24~]pentacosa[8,16,18,24]tetraen]-15′-one 13′,13′-dioxide] | 0.224 | 399 | – | –
C[C@@H]1[C@@H](C)CCC[C@@](O)(Cc2nccn2C)[C@@H]2CC[C@H]2CN2C[C@@]3(CCCc4cc(Cl)ccc43)COc3ccc(cc32)C(=O)NS1(=O)=O [Example 100163, (1S,3′R,6′R,7′R,11′S,12′R)-6-chloro-7′-hydroxy-11′,12′-dimethyl-7′-((1-methyl-1H-imidazol-2-yl)methyl)-3,4-dihydro-2H,15′H-spiro[naphthalene-1,22′-[20]oxa[13]thia[1,14]diazatetracyclo [14.7.2.0~3,6~.0~19,24~]pentacosa[16,18,24]trien]-15′-one 13′,13′-dioxide] | 2.79 | – | 1000 | –
C[C@@H]1[C@@H](C)CCC[C@](C=O)(CN2CCOCC2)[C@@H]2CC[C@H]2CN2C[C@@]3(CCCc4cc(Cl)ccc43)COc3ccc(cc32)C(=O)NS1(=O)=O [Example 100337, (1S,3′R,6′R,7′R,11′S,12′R)-6-chloro-11′,12′-dimethyl-7′-(4-morpholinylmethyl)-15′-oxo-3,4-dihydro-2H-spiro[naphthalene-1,22′-[20]oxa[13]thia[1,14]diazatetracyclo [14.7.2.0~3,6~.0~19,24~]pentacosa[16,18,24]triene]-7′-carbaldehyde 13′,13′-dioxide] | – | 2410 | – | IC50 [1]: 1.61 nM

— patent US10821115B2, “Compounds that inhibit Mcl-1 protein” (priority 2017, dated 2020)
